Reference: PubChem BioAssay AID1224921 (Broad Institute, 2016)
Activity calls are given as the source filed them. The rule behind the calls is not given here.

What follows are molecules tested on Clostridioides difficile clinical isolate growth, OD600, 24 h (assay: inhibitors of Clostridioides difficile proliferation – 4-point retest, confirmation (AID 1224921)).

| SMILES | AC50 |
| --- | --- |
| CNC(=O)C[C@H]1CC[C@H]2[C@@H](COC[C@H](O)CN2C(=O)Nc2ccc(Cl)c(Cl)c2)O1 | < 1.95 µM |
| Cc1ccc(S(=O)(=O)Nc2ccc3c(c2)C(=O)N([C@@H](C)CO)C[C@H](C)[C@@H](CN(C)Cc2ccc4c(c2)OCO4)OCCCC[C@@H](C)O3)cc1 | 7.88 µM |
| O=C(C[C@@H]1CC[C@@H]2[C@H](COC[C@H](O)CN2C(=O)Nc2ccc(C(F)(F)F)cc2)O1)NCC1CCCCC1 | 1.09 µM |
| CCNC(=O)C[C@@H]1CC[C@@H]2[C@H](COC[C@@H](O)CN2C(=O)Nc2ccc(Cl)c(Cl)c2)O1 | 16.5 µM |
| O=C(C[C@H]1CC[C@@H]2[C@H](COC[C@@H](O)CN2C(=O)Nc2ccc(Cl)c(Cl)c2)O1)NC1CCC1 | 8.68 µM |
| O=C(NCC[C@@H]1CC[C@H](NC(=O)C2CC2)[C@@H](CO)O1)Nc1ccc(C(F)(F)F)cc1 | 1.95 µM |
| CO[C@H](CN(C)Cc1cc(F)ccc1F)[C@H](C)CN(C(=O)Nc1ccc(C(F)(F)F)cc1)[C@H](C)CO | 10.3 µM |
| CO[C@H](CN(C)C(=O)C1CCOCC1)[C@@H](C)CN(C(=O)Nc1ccc(C(F)(F)F)cc1)[C@@H](C)CO | 3.16 µM |
| CCCNC(=O)C[C@H]1CC[C@@H]2[C@H](COC[C@H](O)CN2C(=O)Nc2ccc(Cl)c(Cl)c2)O1 | 3.77 µM |
| C[C@H](CO)N1C[C@H](C)[C@@H](CN(C)CC2CCCCC2)OCCCC[C@H](C)Oc2ccc(NC(=O)Nc3ccc(C(F)(F)F)cc3)cc2C1=O | 13.6 µM |
| C[C@@H]1CN([C@@H](C)CO)C(=O)c2cc(NC(=O)Nc3cccc4ccccc34)ccc2O[C@@H](C)CCCCO[C@H]1CN(C)CC1CCCCC1 | 32.1 µM |
| CC(=O)N[C@@H]1CC[C@@H](CCNC(=O)Nc2ccc(C(F)(F)F)cc2)O[C@H]1CO | 12.7 µM |
| C[C@H]1CN([C@@H](C)CO)S(=O)(=O)c2ccc(C#CC3CCCC3)cc2O[C@@H]1CN(C)Cc1cccnc1 | > 60 µM (inactive) |
| COc1ccc(S(=O)(=O)Nc2ccc3c(c2)C(=O)N([C@@H](C)CO)C[C@H](C)[C@@H](CN(C)Cc2ccc4c(c2)OCO4)OCCCC[C@@H](C)O3)cc1 | 6.68 µM |
| COC(=O)[C@H]1[C@H](CO)[C@H]2Cn3c(ccc(-c4ccccc4)c3=O)[C@H]2N1CC1CCCCC1 | 16.7 µM |
| CCNC(=O)C[C@@H]1CC[C@H]2[C@@H](COC[C@@H](O)CN2C(=O)Nc2ccc(C(F)(F)F)cc2)O1 | 10.4 µM |
| COc1ccc(CN(C)C[C@H]2OCCCC[C@@H](C)Oc3ccc(NC(=O)Nc4ccc(C(F)(F)F)cc4)cc3C(=O)N([C@@H](C)CO)C[C@@H]2C)cc1 | 4.74 µM |
| C[C@@H]1CCCCO[C@@H](CN(C)CC2CC2)[C@H](C)CN([C@H](C)CO)C(=O)c2cc(NC(=O)Nc3ccc(C(F)(F)F)cc3)ccc2O1 | 15.9 µM |
| COc1ccccc1CNC(=O)C[C@H]1CC[C@@H]2[C@H](COC[C@H](O)CN2C(=O)Nc2ccc(C(F)(F)F)cc2)O1 | 1.04 µM |
| COc1cccc(C#Cc2ccc([C@@H]3[C@@H](C#N)N(C(=O)C4CCC4)[C@H]3CO)cc2)c1 | > 60 µM (inactive) |
| CNC(=O)C[C@H]1CC[C@H]2[C@@H](COC[C@@H](O)CN2C(=O)Nc2ccc(Cl)c(Cl)c2)O1 | 2.75 µM |
| O=C(C[C@H]1CC[C@@H]2[C@H](COC[C@H](O)CN2C(=O)Nc2ccc(Cl)c(Cl)c2)O1)NCc1ccc(Cl)c(Cl)c1 | < 0.5 µM |
| O=C(C[C@H]1CC[C@H]2[C@@H](COC[C@H](O)CN2C(=O)Nc2ccc(Cl)c(Cl)c2)O1)NCc1ccncc1 | 0.575 µM |
| O=C(C[C@H]1CC[C@H]2[C@@H](COC[C@@H](O)CN2C(=O)Nc2ccc(C(F)(F)F)cc2)O1)NCCc1ccncc1 | 3.88 µM |

| SMILES | AC50 |
| --- | --- |
| COc1ccccc1-c1ccc2c(c1)O[C@H](CN(C)C(=O)c1ccccc1)[C@H](C)CN([C@H](C)CO)S2(=O)=O | > 60 µM (inactive) |
| CC(C)NC(=O)N1[C@H](CO)[C@@H](c2ccc(-c3ccc(F)cc3)cc2)[C@@H]1C#N | 22.6 µM |
| C[C@H](CO)N1C[C@H](C)[C@H](CN(C)CC2CCCCC2)OCCCC[C@H](C)Oc2ccc(NC(=O)Nc3ccc(C(F)(F)F)cc3)cc2C1=O | 10.9 µM |
| O=C(C[C@@H]1C[C@H]2c3cc(NC(=O)NC4CCCC4)ccc3O[C@H]2[C@H](CO)O1)NCc1ccc2c(c1)OCO2 | > 60 µM (inactive) |
| O=C(C[C@H]1CC[C@H]2[C@@H](COC[C@@H](O)CN2C(=O)Nc2ccc(Cl)c(Cl)c2)O1)NCc1ccc(F)cc1 | 1.36 µM |
| CCNC(=O)C[C@H]1CC[C@H]2[C@@H](COC[C@@H](O)CN2C(=O)Nc2ccc(C(F)(F)F)cc2)O1 | 2.77 µM |
| O=C(C[C@@H]1CC[C@H]2[C@@H](COC[C@@H](O)CN2C(=O)Nc2ccc(Cl)c(Cl)c2)O1)NCc1ccc(Cl)cc1 | 1.04 µM |
| C[C@@H]1CCCCO[C@H](CN(C)Cc2ccc3c(c2)OCO3)[C@@H](C)CN([C@@H](C)CO)C(=O)c2cc(NC(=O)Nc3ccc(C(F)(F)F)cc3)ccc2O1 | 20.9 µM |
| O=C(C[C@@H]1CC[C@H]2[C@@H](COC[C@@H](O)CN2C(=O)Nc2ccc(C(F)(F)F)cc2)O1)NCC1CC1 | 3.98 µM |
| CO[C@@H]1CN(C)C(=O)c2ccc(NC(=O)c3ccccc3)cc2OC[C@H](C)N(C(=O)C2CC2)C[C@H]1C | > 60 µM (inactive) |
| O=C(C[C@@H]1CC[C@H]2[C@@H](COC[C@@H](O)CN2C(=O)Nc2ccc(Cl)c(Cl)c2)O1)NCc1ccccc1 | 1.6 µM |
| O=C(NCC[C@H]1CC[C@H](NC(=O)C2CC2)[C@@H](CO)O1)Nc1ccc(C(F)(F)F)cc1 | 15.6 µM |
| CC(=O)N[C@@H]1CC[C@H](CCNC(=O)Nc2ccc(C(F)(F)F)cc2)O[C@H]1CO | 11.8 µM |
| Cc1ccc(S(=O)(=O)N2C[C@@H](O)COC[C@H]3O[C@H](CC(=O)NCc4ccc(Cl)c(Cl)c4)CC[C@@H]32)cc1 | > 60 µM (inactive) |
| C[C@@H]1CN([C@@H](C)CO)C(=O)c2cc(NC(=O)Nc3ccc(C(F)(F)F)cc3)ccc2O[C@@H]1CN(C)CC1CCCCC1 | 9.84 µM |
| COc1ccccc1CNC(=O)C[C@@H]1CC[C@H]2[C@@H](COC[C@@H](O)CN2C(=O)Nc2ccc(C(F)(F)F)cc2)O1 | 2.14 µM |
| O=C(C[C@H]1CC[C@@H]2[C@H](COC[C@H](O)CN2C(=O)Nc2ccc(Cl)c(Cl)c2)O1)NCc1ccc(F)cc1 | 1.91 µM |
| O=C(C[C@@H]1CC[C@@H]2[C@H](COC[C@@H](O)CN2C(=O)Nc2ccc(C(F)(F)F)cc2)O1)NC1Cc2ccccc2C1 | 2.27 µM |
| CO[C@H]1CN(C)C(=O)c2cc(NC(=O)Nc3cc(Cl)cc(Cl)c3)ccc2OC[C@H](C)NC[C@H]1C | 11.6 µM |
| CCC(=O)Nc1ccc2c(c1)C(=O)N(C)C[C@@H](OC)[C@H](C)CN(C(=O)NC(C)C)[C@@H](C)CO2 | > 60 µM (inactive) |
| CO[C@@H](CN(C)C(=O)C1CC1)[C@H](C)CN(C(=O)Nc1ccc(C(F)(F)F)cc1)[C@@H](C)CO | 3.04 µM |
| C[C@@H]1CN([C@H](C)CO)S(=O)(=O)c2ccc(/C=C/c3ccccc3)cc2O[C@H]1CN(C)Cc1ccc(C(=O)O)cc1 | < 0.5 µM |
| C[C@H]1CN([C@@H](C)CO)C(=O)c2cccc(NC(=O)c3ccncc3)c2O[C@@H]1CN(C)Cc1ccc(-c2ccccc2)cc1 | 1.74 µM |
| COc1cccc(C#Cc2ccc3c(c2)O[C@@H](CN(C)C)[C@H](C)CN([C@H](C)CO)S3(=O)=O)c1 | 25.8 µM |

| SMILES | AC50 |
| --- | --- |
| C[C@H]1CN([C@@H](C)CO)C(=O)c2cccc(NC(=O)Nc3ccc(C(F)(F)F)cc3)c2O[C@@H]1CN(C)C(=O)Nc1ccccc1 | 32.2 µM |
| C[C@H]1CN([C@@H](C)CO)C(=O)c2ccccc2-c2ccccc2CO[C@H]1CN(C)Cc1ccc(F)cc1 | > 16 µM (inactive) |
| CO[C@H](CN(C)S(=O)(=O)c1cn(C)cn1)[C@@H](C)CN(C(=O)Nc1ccc(C(F)(F)F)cc1)[C@H](C)CO | 2.16 µM |
| O=C(C[C@H]1CC[C@@H]2[C@H](COC[C@@H](O)CN2S(=O)(=O)c2ccccc2)O1)NCC1CCCCC1 | 15.5 µM |
| C[C@@H](NC(=O)C[C@H]1CC[C@H]2[C@@H](COC[C@H](O)CN2C(=O)Nc2cccc(Cl)c2)O1)c1ccccc1 | 9.84 µM |
| CO[C@@H](CN(C)C(=O)C1CCOCC1)[C@@H](C)CN(C(=O)Nc1ccc(C(F)(F)F)cc1)[C@@H](C)CO | 3.66 µM |
| C[C@@H]1CN([C@@H](C)CO)C(=O)c2cccc(NC(=O)Nc3ccc(C(F)(F)F)cc3)c2O[C@@H]1CN(C)C(=O)Nc1ccc(F)cc1 | 30 µM |
| O=C(C[C@@H]1CC[C@H]2[C@@H](COC[C@H](O)CN2C(=O)Nc2cc(Cl)cc(Cl)c2)O1)N1CCOCC1 | 17.6 µM |
| CNC(=O)C[C@@H]1CC[C@H]2[C@@H](COC[C@@H](O)CN2C(=O)Nc2ccc(Cl)c(Cl)c2)O1 | 11.9 µM |
| C[C@@H]1CCCCO[C@@H](CN(C)CC2CCCCC2)[C@@H](C)CN([C@@H](C)CO)C(=O)c2cc(NC(=O)Nc3ccc(C(F)(F)F)cc3)ccc2O1 | 10.7 µM |
| O=C(C[C@H]1CC[C@@H]2[C@H](COC[C@H](O)CN2C(=O)Nc2ccc(Cl)c(Cl)c2)O1)NC1CCC1 | 4.46 µM |
| C[C@H]1CN([C@@H](C)CO)C(=O)CCCn2nncc2CO[C@@H]1CN(C)C(=O)Nc1ccc(C(F)(F)F)cc1 | 17.7 µM |
| C[C@@H]1CN([C@@H](C)CO)C(=O)c2cc(NC(=O)C3CC3)ccc2O[C@@H]1CN(C)C(=O)Nc1ccc(C(F)(F)F)cc1 | 8.92 µM |
| C[C@@H]1CN([C@H](C)CO)C(=O)c2cc(NC(=O)Nc3ccc(C(F)(F)F)cc3)ccc2O[C@@H](C)CCCCO[C@H]1CN(C)Cc1ccc2c(c1)OCO2 | 7.9 µM |
| CO[C@H](CN(C)C(=O)C1CC1)[C@H](C)CN(C(=O)Nc1ccc(C(F)(F)F)cc1)[C@@H](C)CO | 14.7 µM |
| C[C@@H]1CN([C@@H](C)CO)C(=O)c2cccc(NC(=O)Nc3ccc(C(F)(F)F)cc3)c2O[C@@H]1CN(C)Cc1ccc(Oc2ccccc2)cc1 | < 0.5 µM |
| CN(C)CC(=O)N[C@H]1CC[C@H](CCNC(=O)Nc2ccc(C(F)(F)F)cc2)O[C@H]1CO | 10.9 µM |
| CO[C@H]1CN(C)C(=O)c2cc(NC(=O)Nc3cc(Cl)cc(Cl)c3)ccc2OC[C@H](C)NC[C@@H]1C | 9.09 µM |
| CO[C@@H]1CN(C)C(=O)c2cc(NC(=O)Nc3ccc(C(F)(F)F)cc3)ccc2OC[C@H](C)NC[C@H]1C | 17.8 µM |
| CO[C@H]1CN(C)C(=O)c2cc(NC(=O)Nc3ccc(Cl)c(Cl)c3)ccc2OC[C@@H](C)NC[C@H]1C | 9.16 µM |
| COc1ccccc1C#Cc1ccc([C@H]2[C@@H](C#N)N(C(=O)C3CCCCC3)[C@H]2CO)cc1 | 30 µM |
| CO[C@H]1CN(C)C(=O)c2ccc(NC(=O)Nc3ccc(Cl)c(Cl)c3)cc2OC[C@H](C)NC[C@H]1C | 9.83 µM |
| O=C(C[C@@H]1CC[C@H]2[C@@H](COC[C@H](O)CN2C(=O)Nc2ccc(Cl)c(Cl)c2)O1)NCc1ccc(Cl)c(Cl)c1 | 1.1 µM |
